Data: publication PMC12860872, “Preclinical evaluation of DOTAGA.Glu.(FAPI)2 and DO3A.Glu.(FAPI)2 as theranostics with human dosimetry extrapolation to lutetium-177 and terbium-161 analogs” (European Journal of Nuclear Medicine and Molecular Imaging, 2025)
“And” between values parts separate entries of the source, which are not always exact repeats. Equal entries are not always repeated.

Tests used:
[1] = system: FAP; design: method as in Martin et al. 2023 (15); details: enzymatic assay; ref Martin et al. 2023 (15); cited from earlier work
[2] = system: DPP8; design: method as in Martin et al. 2023 (15); details: ref Martin et al. 2023 (15); cited from earlier work
[3] = biological target: T1, FAP (Homo sapiens, UniProt Q12884); assay: Saturation binding on FAP+ CAFs; details: listed as 68/natGa-DOTAGA.Glu.(FAPI)2
T1 construct: the CAF cells overexpressing FAP were seeded at a density of 0.8-1 million cells per well; host or cells: hTERT PF179T prostate cancer-associated fibroblasts
T1 sequence (Q12884 1-760): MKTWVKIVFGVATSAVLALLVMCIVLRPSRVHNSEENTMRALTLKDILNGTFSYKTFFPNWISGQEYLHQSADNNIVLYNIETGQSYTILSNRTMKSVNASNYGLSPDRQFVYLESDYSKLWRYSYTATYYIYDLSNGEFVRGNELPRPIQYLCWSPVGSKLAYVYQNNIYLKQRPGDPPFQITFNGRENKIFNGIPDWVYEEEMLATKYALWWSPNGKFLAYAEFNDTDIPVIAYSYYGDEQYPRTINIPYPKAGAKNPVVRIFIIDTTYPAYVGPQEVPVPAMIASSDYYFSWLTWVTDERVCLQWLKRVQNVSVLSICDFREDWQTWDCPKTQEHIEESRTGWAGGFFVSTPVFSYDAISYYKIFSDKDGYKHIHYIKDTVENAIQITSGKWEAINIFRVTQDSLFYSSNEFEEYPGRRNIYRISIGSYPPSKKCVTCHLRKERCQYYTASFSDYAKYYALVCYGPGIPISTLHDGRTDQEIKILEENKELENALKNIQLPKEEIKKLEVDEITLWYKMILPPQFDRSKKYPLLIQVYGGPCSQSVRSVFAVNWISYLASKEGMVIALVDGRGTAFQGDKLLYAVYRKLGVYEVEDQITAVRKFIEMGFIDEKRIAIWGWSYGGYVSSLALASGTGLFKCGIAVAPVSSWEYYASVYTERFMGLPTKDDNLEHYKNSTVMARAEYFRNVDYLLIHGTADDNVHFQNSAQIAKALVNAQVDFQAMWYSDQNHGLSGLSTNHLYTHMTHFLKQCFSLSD
Method: For receptor saturation studies, FAP^+ CAFs were incubated with 0.1 to 10 nM of the radioligands. For internalization studies, approximately 2.5 pmol of the radioligands were added to CAFs followed by incubation for 15, 30, 60, 90, 120, 180 and 240 min for the ^68Ga-labeled or 30, 60, 120, 240 and 360 min for the ^177Lu-labeled radioligands at 37 °C, 5% CO2. For the externalization studies, approximately 2.5 pmol of the ^177Lu-labeled radioligands were added to CAFs followed by incubation for 2 h at 37 °C, 5% CO2. The amount of externalized activity was measured at 0, 10, 20, 30, 60, 120, 240, and 1440 min (Supplemental Data).
For receptor saturation analysis, the CAF cells overexpressing FAP were seeded at a density of 0.8-1 million cells per well in 6-well plates, pre-coated with BME (Cultrex Reduced Growth Factor Basement Membrane Extract, RGF BME, R&D System, Minneapolis, USA) to enhance cell attachment. The cells were incubated overnight with medium (EMEM supplemented and containing 10% FBS, 100 U/mL penicillin and 100 μg/mL streptomycin). The next day, the medium was removed and the cells were incubated for 30 minutes at 37 °C, with 0.8 mL of fresh medium. Afterwards, the plates were placed on ice for 30 minutes followed by incubation with increasing concentrations of ^68/natGa- and ^177/natLu-labelled DOTAGA.Glu.(FAPI)2 and DO3A.Glu.( FAPI)2 (0.1-10 nM final concentration in the wells). After the addition of the radioligands, the cells were incubated for 120 minutes at 4 °C. Non-specific binding was determined in the presence of UAMC1110 at a final concentration of 1 μM. After the completion of the incubation, the cells were washed twice with ice-cold PBS, followed by solubilization with 1 M NaOH. The cell-associated radioactivity was measured using a gamma-counter. Specific binding was plotted against the total molar concentration of the added radiotracer. The Kd values and the concentration of the radioligand required to saturate the receptors (Bmax) were determined by nonlinear regression using GraphPad (Prism 8 Graph Pad Software, San Diego, CA). For all the cell studies the values are normalized for 1x10^6 cells per well and all data are from two independent experiments with triplicates in each experiment.

[4] = system: PC3-mice; assay: Biodistribution in PC3-mice incl. blocking; assay type: in vivo, mouse; details: PC3-mice
Method: Male athymic Balb/C nude mice (6 weeks/20–25 g) were implanted with PC3 cells (3.5 × 10^6/100 µL PBS) into their right shoulder to develop tumors. The animals were used for biodistribution and PET/SPECT/CT imaging studies, once tumors reached 250–300 mm^3.
All mice were euthanized with intraperitoneal injection of pentobarbital (150 mg/kg), and selected organs were dissected, weighed, and measured for radioactivity using a gamma-counter. Results are expressed as % injected activity per gram tissue (% I.A./g), presented as mean ± SD (n = 3–4).

[5] = system: PREP; design: method as in Martin et al. 2023 (15); details: ref Martin et al. 2023 (15); cited from earlier work
[6] = system: DPP4; design: method as in Martin et al. 2023 (15); details: ref Martin et al. 2023 (15); cited from earlier work
[7] = system: DPP9; design: method as in Martin et al. 2023 (15); details: ref Martin et al. 2023 (15); cited from earlier work
[8] = Blocking 1h (20 nmol unlabeled precursor)

## N#C[C@@H]1CC(F)(F)CN1C(=O)CNC(=O)c1ccnc2ccccc12 [UAMC-1110, reference compound]
[1]
  IC50: 0.00043 ± 2e-05 µM
[2]
  IC50: > 10 µM

## N#C[C@@H]1CC(F)(F)CN1C(=O)CNC(=O)c1ccnc2ccc(OCCCCNC(=O)CC[C@H](NC(=O)CCC(C(=O)O)N3CCN(CC(=O)[O-])CCN(CC(=O)[O-])CCN(CC(=O)[O-])CC3)C(=O)NCCCCOc3ccc4nccc(C(=O)NCC(=O)N5CC(F)(F)C[C@H]5C#N)c4c3)cc12.[68Ga+3] (stereo partly shown) [[^68Ga]Ga-DOTAGA.Glu.(FAPI)2]
[3]; 0.1 to 10 nM radioligand
  Kd: 0.0008 µM and 0.00077 µM
[3]
  Bmax: 0.7 ± 0.04 nM and 0.67 ± 0.04 nM
[4]; 1 h p.i.
  Uptake in Adrenal: 3.6±0.6 %I.A./g
  Uptake in Blood: 3.5 ± 0.2 %I.A./g
  Uptake in Bone: 4.9±0.8 %I.A./g
  Uptake in Gallbladder: 3.2±0.6 %I.A./g
  Uptake in Heart: 1.6±0.2 %I.A./g
  Uptake in Intestine: 1.4±0.2 %I.A./g
  Uptake in Kidney: 8.3±0.7 %I.A./g
  Uptake in Liver: 3±0.4 %I.A./g
  Uptake in Lung: 3.7±0.6 %I.A./g
  Uptake in Muscle: 1.9±0.2 %I.A./g
  Uptake in Pancreas: 2.5±0.2 %I.A./g
  Uptake in Salivary glands: 8.2±0.5 %I.A./g
  Uptake in Spleen: 1.6±0.01 %I.A./g
  Uptake in Stomach: 1.3±0.2 %I.A./g
  Uptake in Tumor: 18.2 ± 2.3 %I.A./g and 18.2±3.8 %I.A./g
[4]; 2 h p.i.
  Uptake in Adrenal: 4.2±0.2 %I.A./g
  Uptake in Blood: 2.6±0.1 %I.A./g
  Uptake in Bone: 6.4±1.2 %I.A./g
  Uptake in Gallbladder: 2.3±0.4 %I.A./g
  Uptake in Heart: 1±0.01 %I.A./g
  Uptake in Intestine: 1±0.03 %I.A./g
  Uptake in Kidney: 4.8±0.5 %I.A./g
  Uptake in Liver: 1.4±0.04 %I.A./g
  Uptake in Lung: 1.7±0.2 %I.A./g
  Uptake in Muscle: 1.7±0.3 %I.A./g
  Uptake in Pancreas: 2.3±0.1 %I.A./g
  Uptake in Salivary glands: 6.5±1.1 %I.A./g
  Uptake in Spleen: 1±0.1 %I.A./g
  Uptake in Stomach: 0.9±0.04 %I.A./g
  Uptake in Tumor: 17.8 ± 0.5 %I.A./g
[4]; 3 h p.i.
  Uptake in Adrenal: 3.9±2 %I.A./g
  Uptake in Blood: 2.5 ± 0.1 %I.A./g
  Uptake in Bone: 6.7±0.1 %I.A./g
  Uptake in Gallbladder: 2.6±1.1 %I.A./g
  Uptake in Heart: 1±0.2 %I.A./g
  Uptake in Intestine: 1.1±0.1 %I.A./g
  Uptake in Kidney: 4.4±0.4 %I.A./g
  Uptake in Liver: 1.6±0.2 %I.A./g
  Uptake in Lung: 1.4±0.1 %I.A./g
  Uptake in Muscle: 1.6±0.2 %I.A./g
  Uptake in Pancreas: 2±0.1 %I.A./g
  Uptake in Salivary glands: 6±0.1 %I.A./g
  Uptake in Spleen: 1.1±0.2 %I.A./g
  Uptake in Stomach: 1±0.1 %I.A./g
  Uptake in Tumor: 18.4 ± 2.2 %I.A./g and 18.4±2.1 %I.A./g
[4]; [8]
  Uptake in Adrenal: 0.7±0.1 %I.A./g
  Uptake in Blood: 1.7±0.5 %I.A./g
  Uptake in Bone: 0.3±0.2 %I.A./g
  Uptake in Gallbladder: 5.5±0.6 %I.A./g
  Uptake in Heart: 0.6±0.1 %I.A./g
  Uptake in Intestine: 0.6±0.3 %I.A./g
  Uptake in Kidney: 5.6±1.8 %I.A./g
  Uptake in Liver: 0.6±0.2 %I.A./g
  Uptake in Lung: 1.3±0.5 %I.A./g
  Uptake in Muscle: 0.2±0.1 %I.A./g
  Uptake in Pancreas: 0.3±0.1 %I.A./g
  Uptake in Salivary glands: 0.7±0.1 %I.A./g
  Uptake in Spleen: 0.5±0.1 %I.A./g
  Uptake in Stomach: 0.5±0.1 %I.A./g
  Uptake in Tumor: 1.4±0.5 %I.A./g
[4]; sustained up to 3 h p.i.
  tumor uptake: 18–19 %I.A./g

## N#C[C@@H]1CC(F)(F)CN1C(=O)CNC(=O)c1ccnc2ccc(OCCCCNC(=O)CC[C@H](NC(=O)CCC(C(=O)O)N3CCN(CC(=O)[O-])CCN(CC(=O)[O-])CCN(CC(=O)[O-])CC3)C(=O)NCCCCOc3ccc4nccc(C(=O)NCC(=O)N5CC(F)(F)C[C@H]5C#N)c4c3)cc12.[Lu+3] (stereo partly shown) [[^natLu]Lu-DOTAGA.Glu.(FAPi)2]
[1]
  IC50: 0.00033 ± 2e-05 µM
[5]
  IC50: 0.43 ± 0.16 µM
[6]
  IC50: 0.65 ± 0.04 µM
[2]
  IC50: 0.22 ± 0.02 µM
[7]
  IC50: 0.19 ± 0.01 µM
